Assay results as given in PubChem BioAssay (NCI).
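Five compound concentrations were applied to cells in 96-well plates for 48 hours; endpoints were derived by simple linear interpolation of the resulting dose-response curve. Here, GI50 denotes the concentration required for 50% inhibition of growth. TGI is the concentration that stops growth completely.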

Experiments:
Assay in all cases: inhibition of tumour cell growth, NCI panel, 48 h
T-47D breast = test system: T-47D breast
UO-31 renal = test system: UO-31 renal
MCF7 breast = test system: MCF7 breast
NCI/ADR-RES ovarian = test system: NCI/ADR-RES ovarian
ACHN renal = test system: ACHN renal
SR leukemia = test system: SR leukemia
OVCAR-8 ovarian = test system: OVCAR-8 ovarian
LOX IMVI melanoma = test system: LOX IMVI melanoma
OVCAR-3 ovarian = test system: OVCAR-3 ovarian
SK-OV-3 ovarian = test system: SK-OV-3 ovarian
EKVX NSCLC = test system: EKVX NSCLC
COLO 205 colon = test system: COLO 205 colon
HCT-15 colon = test system: HCT-15 colon
A549 NSCLC = test system: A549 NSCLC
NCI-H460 lung = test system: NCI-H460 lung
IGROV1 ovarian = test system: IGROV1 ovarian
SNB-19 CNS = test system: SNB-19 CNS
MALME-3M melanoma = test system: MALME-3M melanoma
BT-549 breast = test system: BT-549 breast
CAKI-1 renal = test system: CAKI-1 renal
HL-60(TB) leukemia = test system: HL-60(TB) leukemia
NCI-H522 lung = test system: NCI-H522 lung
OVCAR-5 ovarian = test system: OVCAR-5 ovarian
HS 578T breast = test system: HS 578T breast
K-562 leukemia = test system: K-562 leukemia
KM12 colon = test system: KM12 colon
UACC-62 melanoma = test system: UACC-62 melanoma
CCRF-CEM leukemia = test system: CCRF-CEM leukemia
M14 melanoma = test system: M14 melanoma
SNB-75 CNS = test system: SNB-75 CNS
NCI-H23 lung = test system: NCI-H23 lung
PC-3 prostate = test system: PC-3 prostate
HOP-62 NSCLC = test system: HOP-62 NSCLC
786-0 renal = test system: 786-0 renal
OVCAR-4 ovarian = test system: OVCAR-4 ovarian
SF-268 CNS = test system: SF-268 CNS
SN12C renal = test system: SN12C renal
MDA-MB-435 = test system: MDA-MB-435
NCI-H226 lung = test system: NCI-H226 lung
DU-145 prostate = test system: DU-145 prostate
MDA-MB-231 breast = test system: MDA-MB-231 breast
U251 CNS = test system: U251 CNS
TK-10 renal = test system: TK-10 renal
HT29 colon = test system: HT29 colon
UACC-257 melanoma = test system: UACC-257 melanoma
HCT-116 colon = test system: HCT-116 colon
RPMI-8226 leukemia = test system: RPMI-8226 leukemia
SK-MEL-28 melanoma = test system: SK-MEL-28 melanoma
SK-MEL-5 melanoma = test system: SK-MEL-5 melanoma
MOLT-4 leukemia = test system: MOLT-4 leukemia
HCC-2998 colon = test system: HCC-2998 colon
A498 renal = test system: A498 renal
HOP-92 NSCLC = test system: HOP-92 NSCLC
RXF 393 renal = test system: RXF 393 renal
SF-539 CNS = test system: SF-539 CNS
SW-620 colon = test system: SW-620 colon
SK-MEL-2 melanoma = test system: SK-MEL-2 melanoma

In the case of `O=C1CC(c2ccccc2)S(=O)c2ccccc2N1` (stereo not drawn), the TGI (T-47D breast) was > 100 µM, the TGI (UO-31 renal) was > 100 µM and the TGI (MCF7 breast) was > 100 µM. For the same molecule, the TGI (NCI/ADR-RES ovarian) was > 100 µM, the TGI (ACHN renal) was > 100 µM and the TGI (SR leukemia) was > 100 µM. The TGI (OVCAR-8 ovarian) was > 100 µM, the TGI (LOX IMVI melanoma) was > 100 µM and the TGI (OVCAR-3 ovarian) was > 100 µM. For the same molecule, the TGI (SK-OV-3 ovarian) was > 100 µM, the TGI (EKVX NSCLC) was > 100 µM and the TGI (COLO 205 colon) was > 100 µM. The TGI (HCT-15 colon) was > 100 µM, the TGI (A549 NSCLC) was > 100 µM and the TGI (NCI-H460 lung) was > 100 µM. The TGI (IGROV1 ovarian) was > 100 µM, the TGI (SNB-19 CNS) was > 100 µM and the TGI (MALME-3M melanoma) was > 100 µM. For the same molecule, the TGI (BT-549 breast) was > 100 µM, the TGI (CAKI-1 renal) was > 100 µM and the TGI (HL-60(TB) leukemia) was > 100 µM. For the same molecule, the TGI (NCI-H522 lung) was > 100 µM, the TGI (OVCAR-5 ovarian) was > 100 µM and the TGI (HS 578T breast) was > 100 µM. For the same molecule, the TGI (K-562 leukemia) was > 100 µM, the TGI (KM12 colon) was > 100 µM and the TGI (UACC-62 melanoma) was > 100 µM. For the same molecule, the TGI (CCRF-CEM leukemia) was > 100 µM, the TGI (M14 melanoma) was > 100 µM and the TGI (SNB-75 CNS) was > 100 µM. For the same molecule, the TGI (NCI-H23 lung) was > 100 µM, the TGI (PC-3 prostate) was > 100 µM and the TGI (HOP-62 NSCLC) was > 100 µM. The TGI (786-0 renal) was > 100 µM, the TGI (OVCAR-4 ovarian) was > 100 µM and the TGI (SF-268 CNS) was > 100 µM. The TGI (SN12C renal) was > 100 µM, the TGI (MDA-MB-435) was > 100 µM and the TGI (NCI-H226 lung) was > 100 µM. The TGI (DU-145 prostate) was > 100 µM, the TGI (MDA-MB-231 breast) was > 100 µM and the TGI (U251 CNS) was > 100 µM. For the same molecule, the TGI (TK-10 renal) was > 100 µM, the TGI (HT29 colon) was > 100 µM and the TGI (UACC-257 melanoma) was > 100 µM. The TGI (HCT-116 colon) was > 100 µM, the TGI (RPMI-8226 leukemia) was > 100 µM and the TGI (SK-MEL-28 melanoma) was > 100 µM. For the same molecule, the TGI (SK-MEL-5 melanoma) was > 100 µM and the TGI (MOLT-4 leukemia) was > 100 µM.
`COc1ccc2c(c1)/C(=N/OC(C)=O)c1c-2cnc2ccccc12` was tested, and the GI50 (HCC-2998 colon) was 39.1 µM, the TGI (HCC-2998 colon) was > 100 µM and the GI50 (T-47D breast) was 19.9 µM. It also gave a TGI (T-47D breast) of 66.3 µM, a GI50 (UO-31 renal) of 22.2 µM and a TGI (UO-31 renal) of 46.6 µM. For the same molecule, the GI50 (MCF7 breast) was 39.7 µM, the TGI (MCF7 breast) was > 100 µM and the GI50 (A498 renal) was 29.3 µM. The TGI (A498 renal) was 82 µM, the GI50 (NCI/ADR-RES ovarian) was 36.9 µM and the TGI (NCI/ADR-RES ovarian) was > 100 µM. The GI50 (ACHN renal) was 20.4 µM, the TGI (ACHN renal) was 45.4 µM and the GI50 (SR leukemia) was 13.8 µM. For the same molecule, the TGI (SR leukemia) was 38 µM, the GI50 (OVCAR-8 ovarian) was 38.4 µM and the TGI (OVCAR-8 ovarian) was > 100 µM. For the same molecule, the GI50 (LOX IMVI melanoma) was 19 µM, the TGI (LOX IMVI melanoma) was 38.6 µM and the GI50 (HOP-92 NSCLC) was 18.3 µM. For the same molecule, the TGI (HOP-92 NSCLC) was 37.2 µM, the GI50 (SK-OV-3 ovarian) was 40.4 µM and the TGI (SK-OV-3 ovarian) was > 100 µM. For the same molecule, the GI50 (EKVX NSCLC) was 23.1 µM, the TGI (EKVX NSCLC) was > 100 µM and the GI50 (COLO 205 colon) was 26.5 µM. For the same molecule, the TGI (COLO 205 colon) was 94.7 µM, the GI50 (HCT-15 colon) was 34.9 µM and the TGI (HCT-15 colon) was > 100 µM. For the same molecule, the GI50 (A549 NSCLC) was 27.4 µM, the TGI (A549 NSCLC) was 73.8 µM and the GI50 (NCI-H460 lung) was 30.3 µM. The TGI (NCI-H460 lung) was > 100 µM, the GI50 (IGROV1 ovarian) was 25.3 µM and the TGI (IGROV1 ovarian) was 52 µM. For the same molecule, the GI50 (SNB-19 CNS) was 36.6 µM, the TGI (SNB-19 CNS) was > 100 µM and the GI50 (MALME-3M melanoma) was 16.2 µM. The TGI (MALME-3M melanoma) was 39.1 µM, the GI50 (BT-549 breast) was 49.5 µM and the TGI (BT-549 breast) was > 100 µM. The GI50 (RXF 393 renal) was 26.4 µM, the TGI (RXF 393 renal) was 68.5 µM and the GI50 (HL-60(TB) leukemia) was 19.6 µM. For the same molecule, the TGI (HL-60(TB) leukemia) was 67 µM, the GI50 (NCI-H522 lung) was 22.3 µM and the TGI (NCI-H522 lung) was 65.5 µM. It also gave a GI50 (OVCAR-5 ovarian) of 21.9 µM, a TGI (OVCAR-5 ovarian) of 55.6 µM and a GI50 (HS 578T breast) of 39.8 µM. For the same molecule, the TGI (HS 578T breast) was > 100 µM, the GI50 (K-562 leukemia) was 24.4 µM and the TGI (K-562 leukemia) was 73.1 µM. The GI50 (KM12 colon) was 25 µM, the TGI (KM12 colon) was 78.7 µM and the GI50 (UACC-62 melanoma) was 16.6 µM. For the same molecule, the TGI (UACC-62 melanoma) was 36.3 µM, the GI50 (CCRF-CEM leukemia) was 28.5 µM and the TGI (CCRF-CEM leukemia) was > 100 µM. The GI50 (M14 melanoma) was 29.6 µM, the TGI (M14 melanoma) was > 100 µM and the GI50 (SNB-75 CNS) was 37.4 µM. The TGI (SNB-75 CNS) was > 100 µM, the GI50 (NCI-H23 lung) was 46.6 µM and the TGI (NCI-H23 lung) was > 100 µM. For the same molecule, the GI50 (PC-3 prostate) was 21.3 µM, the TGI (PC-3 prostate) was 48 µM and the GI50 (SF-539 CNS) was 41.9 µM. The TGI (SF-539 CNS) was > 100 µM, the GI50 (HOP-62 NSCLC) was 20.8 µM and the TGI (HOP-62 NSCLC) was 46.6 µM. It also gave a GI50 (786-0 renal) of 17.8 µM, a TGI (786-0 renal) of 33.2 µM and a GI50 (OVCAR-4 ovarian) of 31.7 µM. The TGI (OVCAR-4 ovarian) was 83.6 µM, the GI50 (SF-268 CNS) was 24 µM and the TGI (SF-268 CNS) was 68.7 µM. The GI50 (SN12C renal) was 18.9 µM, the TGI (SN12C renal) was 36.3 µM and the GI50 (NCI-H226 lung) was 33.5 µM. For the same molecule, the TGI (NCI-H226 lung) was > 100 µM, the GI50 (DU-145 prostate) was 36 µM and the TGI (DU-145 prostate) was > 100 µM. The GI50 (MDA-MB-231 breast) was 22.1 µM, the TGI (MDA-MB-231 breast) was 59.4 µM and the GI50 (SW-620 colon) was 67.1 µM. The TGI (SW-620 colon) was > 100 µM, the GI50 (U251 CNS) was 19.3 µM and the TGI (U251 CNS) was 39.4 µM. It also gave a GI50 (TK-10 renal) of 20.4 µM, a TGI (TK-10 renal) of 54.8 µM and a GI50 (HT29 colon) of 43.1 µM. The TGI (HT29 colon) was > 100 µM, the GI50 (UACC-257 melanoma) was 61.1 µM and the TGI (UACC-257 melanoma) was > 100 µM. For the same molecule, the GI50 (HCT-116 colon) was 21 µM, the TGI (HCT-116 colon) was 48.1 µM and the GI50 (SK-MEL-2 melanoma) was 26.9 µM. It also gave a TGI (SK-MEL-2 melanoma) of 64.6 µM, a GI50 (RPMI-8226 leukemia) of 22.3 µM and a TGI (RPMI-8226 leukemia) of 81.5 µM. The GI50 (SK-MEL-28 melanoma) was 31.6 µM, the TGI (SK-MEL-28 melanoma) was 77.2 µM and the GI50 (SK-MEL-5 melanoma) was 17.6 µM. It also gave a TGI (SK-MEL-5 melanoma) of 48.5 µM, a GI50 (MOLT-4 leukemia) of 20 µM and a TGI (MOLT-4 leukemia) of 92.2 µM.
